Experimental data reported in article PMC8950173 (Pharmaceuticals, 2022).

How the values were obtained:
[1] = Radiochemical stability; type: physicochemical; conditions: room temperature, more than two hours
Description: Radiochemical stability of [^18F]BA3 was investigated in 0.9% NaCl solution (containing 10% EtOH) and in n-octanol at room temperature for 2 h. Samples were analysed by radio-RP-HPLC (see quality control). The LogD7.4 value of [^18F]BA3 was experimentally determined in n-octanol/phosphate-buffered saline (PBS, pH = 7.4) at room temperature by the shake-flask method as described previously. Briefly, small tracer amounts (~800 kBq) were added to a mixture of 3 mL n-octanol and 3 mL PBS. After shaking for 20 min, the samples were centrifuged (10,000 rpm, 5 min) and 1 mL aliquots of the organic as well as aqueous layer were taken and measured in a gamma counter (1480 WIZARD, Perkin Elmer, Turku, Finland). Another 1 mL aliquot of the organic layer was mixed with 2 mL n-octanol and 3 mL PBS and subjected to the same procedure until constant partition coefficient values had been obtained. The measurement was performed twice in quadruplicate.

[2] = target: T1, human recombinant HDAC2 (Homo sapiens, UniProt Q92769); assay: Inhibition assay HDAC2 (fluorogenic substrate ZMAL); type: biochemical; conditions: 60 min preincubation at 25 °C
T1 construct: purchased BPS Bioscience Inc. 50052
T1 sequence (Q92769 whole entry): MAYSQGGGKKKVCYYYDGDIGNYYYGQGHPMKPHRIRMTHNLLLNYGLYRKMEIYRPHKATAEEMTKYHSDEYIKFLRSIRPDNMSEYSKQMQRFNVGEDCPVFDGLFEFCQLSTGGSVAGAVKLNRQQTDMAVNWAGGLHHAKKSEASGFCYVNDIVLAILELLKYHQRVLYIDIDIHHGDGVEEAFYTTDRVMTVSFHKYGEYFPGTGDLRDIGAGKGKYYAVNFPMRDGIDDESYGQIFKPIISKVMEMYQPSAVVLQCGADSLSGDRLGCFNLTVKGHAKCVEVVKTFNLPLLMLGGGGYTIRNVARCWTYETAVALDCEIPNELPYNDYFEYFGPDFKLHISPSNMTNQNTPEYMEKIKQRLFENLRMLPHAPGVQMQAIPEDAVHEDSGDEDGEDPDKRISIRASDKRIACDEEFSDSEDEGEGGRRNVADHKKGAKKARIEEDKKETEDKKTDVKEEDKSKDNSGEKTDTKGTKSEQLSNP
Description: In vitro inhibitory activities against HDAC1−3 and HDAC6 were measured as previously published with minor modifications. […] Subsequently, 50 µL trypsin solution (0.4 mg/mL trypsin in buffer: 50 mM Tris−HCl, pH = 8.0, 100 mM NaCl) was added, followed by additional 30 min of incubation at 37 °C. […] All compounds were tested at least twice in duplicates.

[3] = target: T2, P-glycoprotein (P-gp) efflux transporter (Mus musculus, UniProt P21447); assay: P-gp efflux transporter PET study with cyclosporine A pre-treatment; type: in vivo; conditions: for initial brain uptake: n = 2
T2 construct: from tissue; host or cells: living CD-1 mice, brain / blood-brain barrier
T2 sequence (P21447 whole entry): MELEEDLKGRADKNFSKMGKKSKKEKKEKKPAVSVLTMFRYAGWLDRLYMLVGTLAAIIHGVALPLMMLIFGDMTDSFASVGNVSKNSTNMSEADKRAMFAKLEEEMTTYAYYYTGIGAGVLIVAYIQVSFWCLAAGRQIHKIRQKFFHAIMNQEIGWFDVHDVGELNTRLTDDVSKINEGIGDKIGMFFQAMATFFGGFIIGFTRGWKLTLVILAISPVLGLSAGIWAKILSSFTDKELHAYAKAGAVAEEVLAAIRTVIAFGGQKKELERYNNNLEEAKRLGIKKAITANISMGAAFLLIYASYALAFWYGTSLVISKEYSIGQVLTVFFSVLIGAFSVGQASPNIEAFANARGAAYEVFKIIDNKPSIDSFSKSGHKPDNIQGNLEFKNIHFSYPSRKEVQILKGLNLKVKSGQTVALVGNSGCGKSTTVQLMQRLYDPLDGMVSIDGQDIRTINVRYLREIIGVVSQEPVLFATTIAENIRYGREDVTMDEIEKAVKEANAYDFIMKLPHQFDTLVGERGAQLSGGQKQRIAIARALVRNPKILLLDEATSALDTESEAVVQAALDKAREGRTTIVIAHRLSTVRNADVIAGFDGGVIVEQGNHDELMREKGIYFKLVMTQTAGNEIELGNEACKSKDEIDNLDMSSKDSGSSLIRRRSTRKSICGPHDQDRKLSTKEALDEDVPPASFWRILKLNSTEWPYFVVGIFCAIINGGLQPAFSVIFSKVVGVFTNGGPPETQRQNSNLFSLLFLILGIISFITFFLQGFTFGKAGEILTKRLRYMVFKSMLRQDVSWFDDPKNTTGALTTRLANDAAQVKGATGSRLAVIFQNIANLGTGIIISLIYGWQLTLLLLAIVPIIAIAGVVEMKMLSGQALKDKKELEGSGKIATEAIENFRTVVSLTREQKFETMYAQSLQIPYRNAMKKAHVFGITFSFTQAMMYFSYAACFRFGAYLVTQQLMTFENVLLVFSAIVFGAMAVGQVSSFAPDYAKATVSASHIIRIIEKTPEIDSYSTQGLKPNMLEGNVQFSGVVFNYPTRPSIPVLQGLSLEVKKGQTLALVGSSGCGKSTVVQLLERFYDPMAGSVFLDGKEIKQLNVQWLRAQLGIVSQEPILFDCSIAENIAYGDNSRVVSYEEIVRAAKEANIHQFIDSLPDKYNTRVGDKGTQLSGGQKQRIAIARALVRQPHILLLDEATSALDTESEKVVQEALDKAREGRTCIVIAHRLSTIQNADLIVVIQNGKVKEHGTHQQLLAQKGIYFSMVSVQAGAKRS
Description: For the time of the experiments, female CD-1 mice (n = 6; 8–15 weeks; 29–43 g) were kept in a dedicated climatic chamber with free access to water and food under a 12:12 h dark:light cycle at a constant temperature (24 °C). The animals were anaesthetized (Anaesthesia Unit U-410, agntho’s, Lidingö, Sweden) with isoflurane (2.0%, 300 mL/min) delivered in a 60% oxygen/40% air mixture (Gas Blender 100 Series, MCQ instruments, Rome, Italy) and their body temperature maintained at 37 °C with a thermal bed system. For baseline studies [^18F]BA3 was injected into the tail vein (n = 2; 6.0 ± 0.6 MBq in 150 µL isotonic saline; 9.2 ± 0.7 nmol/kg; Am: 21 GBq/μmol, EOS) followed by a dynamic 60 min PET/MR scan (Mediso nanoScan®, Budapest, Hungary). Permeability-glycoprotein efflux transporter studies consisted in pre-treatment via i.v. injection of cyclosporine A (50 mg/kg in NaCl/DMSO/kolliphor, 7:1:2, v/v; n = 2) or of vehicle (NaCl/DMSO/kolliphor, 7:1:2, v/v; n = 2) 30 min prior to [^18F]BA3 (6.0 ± 0.9 MBq; 4.9 ± 0.7 nmol/kg; Am: 32–37 GBq/μmol, EOS). Each PET image was corrected for random coincidences, dead time, scatter and attenuation (AC), based on a whole body (WB) MR scan. The reconstruction parameters for the list mode data were 3D-ordered subset expectation maximization (OSEM), 4 iterations, 6 subsets, energy window: 400–600 keV, coincidence mode: 1–5, ring difference: 81. The mice were positioned prone in a special mouse bed (heated up to 37 °C), with the head fixed to a mouth piece for the anaesthetic gas supply with isoflurane in 40% air and 60% oxygen. The PET data were collected by a continuous WB scan during the entire investigation. Following the 60 min PET scan a T1 weighted WB gradient echo sequence (TR/TE: 20/6.4 ms, NEX: 1, FA: 25, FOV: 64 × 64 mm, Matrix: 128 × 128, STh: 0.5 mm) was performed for AC and anatomical orientation. […]. The respective brain regions were identified using the mouse brain atlas template Ma-Benveniste-Mirrione-FDG. The activity data are expressed as mean SUV of the overall ROI.

[4] = In vivo metabolism (radio-RP-HPLC and radio-MLC of plasma, brain, urine); set-up: species or system CD-1 mice; conditions: 30 min p.i.
Description: The radiotracer [^18F]BA3 (~30 MBq in 200 µL isotonic saline) was administered via the tail vein in non-anesthetized female CD-1 mice (n = 2). At 30 min p.i., the animals were anesthetized by isoflurane inhalation and blood was sampled from the retro-orbital plexus. After cervical dislocation, urine was obtained and the brain was isolated. Plasma was obtained by centrifugation of the blood sample (8000× g, 2 min), and the brain was homogenized in ~1 mL distilled water on ice using a glass/PTFE Potter Homogenizer (Potter S Homogenizer, B. Braun Melsungen AG, Melsungen, Germany).
Protein precipitation was performed by addition of an ice-cold MeCN/H2O mixture (9:1, v/v) in a ratio of 4:1 (v/v) of organic solvent to plasma or brain homogenate, respectively. The samples were vortexed for 3 min, equilibrated on ice for 3 min, and centrifuged for 10 min at 10,000 rpm. The precipitates were washed with 100 μL of the solvent mixture and subjected to the same procedure. The combined supernatants were concentrated at 70 °C under argon flow to a final volume of approximately 100 μL and analysed by analytical radio-RP-HPLC with a gradient system (see quality control section). The peak corresponding to the radiotracer in the radio-chromatogram was identified by co-injecting the sample with the reference compound BA3. To determine the percentage of activity in the supernatants compared with total activity, aliquots of each step as well as the precipitates were quantified by an automated gamma counter (1480 WIZARD, Perkin Elmer, Turku, Finland). For plasma and brain samples recoveries of 97% and 95%, respectively, of total activity were obtained.
For the preparation of the MLC samples, 20 µL of mouse plasma was dissolved in 200 µL of an aqueous 200 mM sodium dodecyl sulfate (SDSaq) solution and injected into the MLC system. For brain samples, 400 µL brain homogenate was dissolved in 800 µL 200 mM SDSaq, heated for 5 min at 70 °C and centrifuged for 5 min at 10,000 rpm. The MLC system was built up as earlier described. Separations were performed by using a Reprosil-Pur C18-AQ column (250 × 4.6 mm, 10 µm + 10 mm pre-column) and an eluent mixture of EtOH/100 mM SDSaq/25 mM (NH4)2HPO4 in gradient mode (0–10 min at 100% 100 mM SDSaq, 10–15 min up to 10% EtOH, 15–20 min at 10% EtOH, 20–21 min up to 100% 100 mM SDSaq; 21–30 min at 100% 100 mM SDSaq) at a flow rate of 1.0 mL/min.

[5] = radio-RP-HPLC, individual values of 2 mice

Q: For `CC([18F])C(=O)NCc1ccc(C(=O)Nc2cc(-c3ccsc3)ccc2N)cc1` (centres unmarked) [[^18F]BA3], which “radiochemical purity (stability)” value ([1]; in n-octanol) is on record?
A: The value was over 99%.

Q: And the “radiochemical purity (stability)” value ([1]; in saline formulation containing 10% EtOH)?
A: Its value is over 99%.

Q: And the IC50 [2]?
A: Its IC50 is 0.0399 ± 0.0032 µM.

Q: And the P-gp substrate status ([3]; concluded from cyclosporine A pre-administration)?
A: The P-gp substrate status was “substrate of P-gp”.

Q: And the “increase of initial brain uptake by cyclosporine A” value ([3]; cyclosporine A vs vehicle pre-administration)?
A: Its value is “about factor two”.

Q: What about the initial brain uptake ([3]; pre-administration of cyclosporine A 50 mg/kg i.v. 30 min before tracer) of the same compound?
A: The initial brain uptake was 0.42 SUV.

Q: And the initial brain uptake ([3]; pre-administration of vehicle 30 min before tracer)?
A: Its initial brain uptake is 0.18 SUV.

Q: What about the “intact radiotracer, share of total activity in brain” value ([4]; radio-MLC, mean, n = 2) of the same compound?
A: The value was about 24%.

Q: What about the “intact radiotracer, share of total activity in plasma” value ([4]; radio-MLC, mean, n = 2) of the same compound?
A: Its value is “about 6%”.

Q: What about the “intact radiotracer in urine” value ([4]; radio-RP-HPLC and radio-MLC) of the same compound?
A: The value was “not detected”.

Q: What about the “Brain [%] of activity” value [4, 5] of the same compound?
A: Its value is 20 / 23.

Q: And the “Plasma [%] of activity” value [4, 5]?
A: Its value is 3 / 7.

Q: And the “share of total activity in brain” value ([4]; radio-RP-HPLC, mean, n = 2)?
A: Its value is 21%.

Q: What about the “share of total activity in plasma” value ([4]; radio-RP-HPLC, mean, n = 2) of the same compound?
A: Its value is “about 5%”.
